Test results from patent US10538498B2, “1,3,4-oxadiazole sulfonamide derivative compounds as histone deacetylase 6 inhibitor, and the pharmaceutical composition comprising the same” (Chong Kun Dang Pharmaceutical Corp., priority 2015, dated 2020).

Biological target: T1, human recombinant HDAC6 (Homo sapiens, UniProt Q9UBN7)
T1 construct: purchased Calbiochem 382180
T1 sequence (Q9UBN7 1-1215): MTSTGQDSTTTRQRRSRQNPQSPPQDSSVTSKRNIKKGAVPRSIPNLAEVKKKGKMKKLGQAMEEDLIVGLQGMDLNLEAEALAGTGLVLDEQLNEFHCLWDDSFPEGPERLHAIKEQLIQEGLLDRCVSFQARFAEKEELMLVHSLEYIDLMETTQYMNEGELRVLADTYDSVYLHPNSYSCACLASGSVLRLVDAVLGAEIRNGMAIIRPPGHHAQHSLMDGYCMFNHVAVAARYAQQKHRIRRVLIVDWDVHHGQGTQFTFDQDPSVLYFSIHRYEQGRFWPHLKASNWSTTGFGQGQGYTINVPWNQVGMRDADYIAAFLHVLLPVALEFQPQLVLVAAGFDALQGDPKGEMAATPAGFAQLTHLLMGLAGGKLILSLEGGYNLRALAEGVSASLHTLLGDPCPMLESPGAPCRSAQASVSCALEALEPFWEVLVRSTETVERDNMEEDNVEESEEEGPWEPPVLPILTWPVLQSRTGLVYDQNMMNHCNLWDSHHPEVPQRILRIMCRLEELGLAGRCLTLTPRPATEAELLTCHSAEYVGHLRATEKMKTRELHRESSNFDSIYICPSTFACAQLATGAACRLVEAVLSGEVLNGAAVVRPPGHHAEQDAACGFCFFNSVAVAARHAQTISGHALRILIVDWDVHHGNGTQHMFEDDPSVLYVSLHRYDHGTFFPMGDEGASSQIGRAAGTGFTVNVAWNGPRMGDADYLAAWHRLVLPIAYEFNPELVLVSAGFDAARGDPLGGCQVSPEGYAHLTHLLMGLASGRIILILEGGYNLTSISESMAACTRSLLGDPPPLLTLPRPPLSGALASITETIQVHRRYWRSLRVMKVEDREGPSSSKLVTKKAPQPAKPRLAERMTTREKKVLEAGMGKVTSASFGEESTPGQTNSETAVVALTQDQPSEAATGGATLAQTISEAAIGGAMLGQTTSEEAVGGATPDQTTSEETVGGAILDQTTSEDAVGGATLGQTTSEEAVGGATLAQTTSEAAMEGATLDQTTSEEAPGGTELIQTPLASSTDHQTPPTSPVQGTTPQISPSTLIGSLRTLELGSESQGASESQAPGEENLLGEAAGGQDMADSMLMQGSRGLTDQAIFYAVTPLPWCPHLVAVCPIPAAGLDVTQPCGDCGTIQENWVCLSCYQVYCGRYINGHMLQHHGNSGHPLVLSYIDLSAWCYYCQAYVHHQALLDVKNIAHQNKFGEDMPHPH
Experiment: HDAC6 enzyme activity inhibition assay (HDAC Fluorimetric Drug Discovery Kit)
Assay type: biochemical
Conditions: for HDAC6 selectivity (fold): HDAC1 vs HDAC6; for IC50: same protocol as the HDAC1 enzyme activity test
Description: In order to examine the HDAC6 selectivity of the compounds of formula I of the present invention by HDAC1 and HDAC6 enzymatic activity inhibition assays, an experiment was performed using a conventional substance as a control.
HDAC enzyme activity was measured using a HDAC Fluorimetric Drug Discovery Kit (BML-AK511, 516, Enzo Life Science). For the HDAC1 enzyme activity test, human recombinant HDAC1 (BML-SE456) was used as an enzyme source, and Fluor de Lys®-“SIRT1 (BNL-KI177) was used as a substrate. A 5-fold dilution of the compound was seeded into a 96-well plate, and then 0.3 μg of the enzyme and 10 μM of the substrate were added to each well of the plate and allowed to react at 30° C. for 60 minutes. Then, Fluor de Lys®-Developer II (BML-KI176) was added thereto and allowed to react for 30 minutes, after which the fluorescence value (Ex 360, Em 460) was measured using a multi-plate reader (Flexstation 3, Molecular Device). The HDAC6 enzyme was tested using human recombinant HDAC6 (382180) (Calbiochem) according to the same protocol as the HDAC1 enzyme activity test method. Based on the resulting values, each IC50 value was calculated using GraphPad Prism4.0 program.

Row | Compound | HDAC6 selectivity (fold) | IC50
1 | CS(=O)(=O)N(Cc1ccc(-c2nnc(C(F)(F)F)o2)cc1F)c1cccc(F)c1 [Compound 11181, N-(2-fluoro-4-(5-(trifluoromethyl)-1,3,4-oxadiazol-2-yl)benzyl)-N-(3-fluorophenyl)methanesulfonamide] | 3030 fold | 33 nM
2 | CS(=O)(=O)N(Cc1ccc(-c2nnc(C(F)F)o2)cc1F)c1cccc(F)c1 [Compound 11182, N-(4-(5-(difluoromethyl)-1,3,4-oxadiazol-2-yl)-2-fluorobenzyl)-N-(3-fluorophenyl)methanesulfonamide] | 5882 fold | 17 nM
3 | CS(=O)(=O)N(Cc1ccc(-c2nnc(C(F)(F)F)o2)c(F)c1)c1ccccc1 [Compound 11183, N-(3-fluoro-4-(5-(trifluoromethyl)-1,3,4-oxadiazol-2-yl)benzyl)-N-phenylmethanesulfonamide] | 426 fold | 235 nM
4 | CS(=O)(=O)N(Cc1ccc(-c2nnc(C(F)F)o2)cc1)Cc1ccc(-c2nnc(C(F)F)o2)cc1 [Compound 11186, N,N-bis(4-(5-(difluoromethyl)-1,3,4-oxadiazol-2-yl)benzyl)methanesulfonamide] | 433 fold | 231 nM
5 | CS(=O)(=O)N(Cc1ccc(-c2nnc(C(F)F)o2)cc1F)c1cccc(Cl)c1 [Compound 11191, N-(3-chlorophenyl)-N-(4-(5-(difluoromethyl)-1,3,4-oxadiazol-2-yl)-2-fluorobenzyl)methanesulfonamide] | 5000 fold | 20 nM
6 | COc1ccc(N(Cc2ccc(-c3nnc(C(F)F)o3)cc2F)S(C)(=O)=O)cc1 [Compound 11193, N-(4-(5-(difluoromethyl)-1,3,4-oxadiazol-2-yl)-2-fluorobenzyl)-N-(4-methoxyphenyl)methanesulfonamide] | 3704 fold | 27 nM
7 | CS(=O)(=O)N(Cc1ccc(-c2nnc(C(F)(F)F)o2)cc1F)c1cncnc1 [Compound 11194, N-(2-fluoro-4-(5-(trifluoromethyl)-1,3,4-oxadiazol-2-yl)benzyl)-N-(pyrimidin-5-yl)methanesulfonamide] | 1538 fold | 65 nM
8 | CS(=O)(=O)N(Cc1ccc(-c2nnc(C(F)F)o2)cc1F)c1cncnc1 [Compound 11195, N-(4-(5-(difluoromethyl)-1,3,4-oxadiazol-2-yl)-2-fluorobenzyl)-N-(pyrimidin-5-yl)methanesulfonamide] | 1563 fold | 64 nM
9 | CS(=O)(=O)N(Cc1ccc(-c2nnc(C(F)F)o2)cc1F)c1cccc(Br)c1 [Compound 11197, N-(3-bromophenyl)-N-(4-(5-(difluoromethyl)-1,3,4-oxadiazol-2-yl)-2-fluorobenzyl)methanesulfonamide] | 6667 fold | 15 nM
10 | CS(=O)(=O)N(Cc1ccc(-c2nnc(C(F)F)o2)cn1)c1cccc(F)c1 [Compound 11217, N-((5-(5-(difluoromethyl)-1,3,4-oxadiazol-2-yl)pyridin-2-yl)methyl)-N-(3-fluorophenyl)methanesulfonamide] | 7692 fold | 13 nM
11 | CS(=O)(=O)N(Cc1ccc(-c2nnc(C(F)(F)F)o2)cc1F)c1ccccc1C(F)(F)F [Compound 11218, N-(2-fluoro-4-(5-(trifluoromethyl)-1,3,4-oxadiazol-2-yl)benzyl)-N-(2-(trifluoromethyl)phenyl)methanesulfonamide] | 429 fold | 233 nM
12 | CS(=O)(=O)N(Cc1ccc(-c2nnc(C(F)F)o2)cc1F)c1ccccc1C(F)(F)F [Compound 11219, N-(4-(5-(difluoromethyl)-1,3,4-oxadiazol-2-yl)-2-fluorobenzyl)-N-(2-(trifluoromethyl)phenyl)methanesulfonamide] | 1064 fold | 94 nM
13 | CS(=O)(=O)N(Cc1ccc(-c2nnc(C(F)F)o2)cc1F)c1ccc(C(F)(F)F)cc1 [Compound 11221, N-(4-(5-(difluoromethyl)-1,3,4-oxadiazol-2-yl)-2-fluorobenzyl)-N-(4-(trifluoromethyl)phenyl)methanesulfonamide] | 990 fold | 101 nM
14 | CCCCN(Cc1ccc(-c2nnc(C(F)(F)F)o2)cc1)S(C)(=O)=O [Compound 11222, N-butyl-N-(4-(5-(trifluoromethyl)-1,3,4-oxadiazol-2-yl)benzyl)methanesulfonamide] | 243 fold | 412 nM
15 | O=S(=O)(c1cccnc1)N(Cc1ccc(-c2nnc(C(F)F)o2)cc1F)c1cccc(F)c1 [Compound 11225, N-(4-(5-(difluoromethyl)-1,3,4-oxadiazol-2-yl)-2-fluorobenzyl)-N-(3-fluorophenyl)pyridine-3-sulfonamide] | 4167 fold | 24 nM
16 | CS(=O)(=O)N(Cc1ccc(-c2nnc(C(F)F)o2)cc1F)c1ccc2c(c1)OCO2 [Compound 11227, N-(benzo[d][1,3]dioxol-5-yl)-N-(4-(5-(difluoromethyl)-1,3,4-oxadiazol-2-yl)-2-fluorobenzyl)methanesulfonamide] | 4348 fold | 23 nM
17 | O=S(=O)(C1CCCCC1)N(Cc1ccc(-c2nnc(C(F)F)o2)cc1F)c1ccccc1 [Compound 11229, N-(4-(5-(difluoromethyl)-1,3,4-oxadiazol-2-yl)-2-fluorobenzyl)-N-phenylcyclohexanesulfonamide] | 1176 fold | 85 nM
18 | CCC(C)S(=O)(=O)N(Cc1ccc(-c2nnc(C(F)F)o2)cc1F)c1ccccc1 (stereo not shown) [Compound 11230, N-(4-(5-(difluoromethyl)-1,3,4-oxadiazol-2-yl)-2-fluorobenzyl)-N-phenylbutane-2-sulfonamide] | 3030 fold | 33 nM
19 | COC(=O)CS(=O)(=O)N(Cc1ccc(-c2nnc(C(F)F)o2)cc1F)c1ccccc1 [Compound 11231, methyl 2-(N-(4-(5-(difluoromethyl)-1,3,4-oxadiazol-2-yl)-2-fluorobenzyl)-N-phenylsulfamoyl)acetate] | 4545 fold | 22 nM
20 | Cc1ccccc1N(Cc1ccc(-c2nnc(C(F)(F)F)o2)cc1F)S(C)(=O)=O [Compound 11248, N-(2-fluoro-4-(5-(trifluoromethyl)-1,3,4-oxadiazol-2-yl)benzyl)-N-(o-tolyl)methanesulfonamide] | 893 fold | 112 nM
21 | Cc1ccccc1N(Cc1ccc(-c2nnc(C(F)F)o2)cc1F)S(C)(=O)=O [Compound 11249, N-(4-(5-(difluoromethyl)-1,3,4-oxadiazol-2-yl)-2-fluorobenzyl)-N-(o-tolyl)methanesulfonamide] | 2703 fold | 37 nM
22 | COc1ccccc1N(Cc1ccc(-c2nnc(C(F)(F)F)o2)cc1F)S(C)(=O)=O [Compound 11250, N-(2-fluoro-4-(5-(trifluoromethyl)-1,3,4-oxadiazol-2-yl)benzyl)-N-(2-methoxyphenyl)methanesulfonamide] | 1000 fold | 100 nM
23 | COc1ccccc1N(Cc1ccc(-c2nnc(C(F)F)o2)cc1F)S(C)(=O)=O [Compound 11251, N-(4-(5-(difluoromethyl)-1,3,4-oxadiazol-2-yl)-2-fluorobenzyl)-N-(2-methoxyphenyl)methanesulfonamide] | 1563 fold | 64 nM
